Test results as given in ChEMBL document CHEMBL2040772, “Tri-substituted acylhydrazines as tertiary amide bioisosteres: HCV NS5B polymerase inhibitors” (Bioorg Med Chem Lett, 2012).

What was measured:
Hepatitis C virus [1] = experiment: Inhibition of HCV1b NS5B delta21 polymerase assessed as incorporation of nucleotides into sshRNA template using [33P]-CTP after 15 mins by scintillation counting; set-up: species or system Hepatitis C virus subtype 1b; details: 0.25 h
[2] = Lipophilicity, log D of the compound; type: physicochemical; details: octanol/water
Hepatitis C virus [3] = experiment: Antiviral activity against HCV1b infected in human Huh-7 cells after 3 days by renilla luciferase activity based replicon assay; type: functional, organism-based, Hepacivirus hominis; details: genotype 1b, Huh-7, 72 h
[4] = Cytotoxicity against human HuH7 cells after 3 days by measuring conversion of nonfluorescent calcein-AM into fluorescent calcein; type: cell-based, Huh-7
Hepatitis C virus [5] = experiment: Antiviral activity against HCV1a infected in human Huh-7 cells after 3 days by renilla luciferase activity based replicon assay; type: functional, organism-based, Hepacivirus hominis; details: subtype 1a, Huh-7, 72 h
[6] = Selectivity index, ratio of CC50 for human HuH7 cells to EC50 for HCV1b infected in human Huh-7 cells
Hepatitis C virus [7] = experiment: Binding affinity to HCV1b C-terminally truncated NS5B Cdelta21 RNA dependent RNA polymerase expressed in Escherichia coli by surface plasmon resonance assay; set-up: species or system Hepatitis C virus subtype 1b

Which IC50 (Hepatitis C virus [1]) does the source give for CC(C)N(c1cc(C#CC(C)(C)C)sc1C(=O)O)C(=O)[C@H]1CC[C@H](C)CC1 here?
The IC50 was 86 nM.

And the logD [2]?
The logD was 2.

And the EC50 (Hepatitis C virus [3])?
Its EC50 is 26 nM.

What about the CC50 at 72 h [4] of the same compound?
Its CC50 at 72 h is over 44000 nM.

What about the EC50 (Hepatitis C virus [5]) of the same compound?
Its EC50 is 90 nM.

Which results are given for CN(C)N(c1cc(C#CC(C)(C)C)sc1C(=O)O)C(=O)[C@H]1CC[C@H](C)CC1?
IC50 (Hepatitis C virus [1]): 88 nM; logD [2]: 2.1; Ratio CC50/EC50 [6]: >400; EC50 (Hepatitis C virus [3]): 89 nM; CC50 at 72 h [4]: > 44000 nM; EC50 (Hepatitis C virus [5]): 478 nM

Which Kd (Hepatitis C virus [7]) does the source give for CN(CCO)N(c1cc(C#CC(C)(C)C)sc1C(=O)O)C(=O)[C@H]1CC[C@H](C)CC1 here?
Its Kd is 10 nM.

What about the IC50 (Hepatitis C virus [1]) of the same compound?
Its IC50 is 52 nM.

And the EC50 (Hepatitis C virus [3])?
The EC50 was 32 nM.

And the CC50 at 72 h [4]?
Its CC50 at 72 h is over 44000 nM.

Which Kd (Hepatitis C virus [7]) does the source give for CN([C@H]1CC[C@H](O)CC1)N(c1cc(C#CC(C)(C)C)sc1C(=O)O)C(=O)[C@H]1CC[C@H](C)CC1 here?
The Kd was 8 nM.

What about the IC50 (Hepatitis C virus [1]) of the same compound?
The IC50 was 307 nM.

What about the EC50 (Hepatitis C virus [3]) of the same compound?
The EC50 was 34 nM.

What about the CC50 at 72 h [4] of the same compound?
The CC50 at 72 h was over 44000 nM.

Which results are given for CN(CC1CCOCC1)N(c1cc(C#CC(C)(C)C)sc1C(=O)O)C(=O)[C@H]1CC[C@H](C)CC1?
Kd (Hepatitis C virus [7]): 10 nM; IC50 (Hepatitis C virus [1]): 509 nM; EC50 (Hepatitis C virus [3]): 47 nM; CC50 at 72 h [4]: > 44000 nM

Which Kd (Hepatitis C virus [7]) does the source give for CN(C1CCNCC1)N(c1cc(C#CC(C)(C)C)sc1C(=O)O)C(=O)[C@H]1CC[C@H](C)CC1 here?
Its Kd is 4 nM.

What about the IC50 (Hepatitis C virus [1]) of the same compound?
The IC50 was 138 nM.

And the EC50 (Hepatitis C virus [3])?
The EC50 was 60 nM.

What about the CC50 at 72 h [4] of the same compound?
Its CC50 at 72 h is over 44000 nM.

With CN1CCC(N(C)N(c2cc(C#CC(C)(C)C)sc2C(=O)O)C(=O)[C@H]2CC[C@H](C)CC2)CC1 as the compound, how does the Kd (Hepatitis C virus [7]) read?
Its Kd is 4 nM.

And the IC50 (Hepatitis C virus [1])?
The IC50 was 63 nM.

And the EC50 (Hepatitis C virus [3])?
The EC50 was 7 nM.

And the CC50 at 72 h [4]?
Its CC50 at 72 h is over 44000 nM.

What about the EC50 (Hepatitis C virus [5]) of the same compound?
The EC50 was 25 nM.

With CN(c1ccncc1)N(c1cc(C#CC(C)(C)C)sc1C(=O)O)C(=O)[C@H]1CC[C@H](C)CC1 as the compound, how does the Kd (Hepatitis C virus [7]) read?
Its Kd is 30 nM.

What about the IC50 (Hepatitis C virus [1]) of the same compound?
Its IC50 is 346 nM.

What about the EC50 (Hepatitis C virus [3]) of the same compound?
Its EC50 is 3900 nM.

What about the CC50 at 72 h [4] of the same compound?
Its CC50 at 72 h is 36000 nM.
